Source: patent US11731956B2, “Substituted 1,2,4-triazoles as intermediates in the synthesis of TYK2 inhibitors” (Alumis Inc., priority 2018, dated 2023)
Each block holds one compound with its values, some of them ahead of it.

Tests used:
[1] = Pharmacokinetic study in C57BL/6 mice; type: in vivo, male C57BL/6 mice
Description: (§1) The pharmacokinctics of test compounds were evaluated in male C57BL/6 mice, Sprague Dawley rats, Beagle dogs, and cynomolgus monkeys when administered via oral gavage and IV injection. The animals were fasted overnight before administration. Plasma samples were collected predose and at 0.5, 1, 3, 6, 9, 12, and 24 hours postdose. The samples were analyzed by LC/MS/MS and the concentration of test compound at each timepoint was determined by linear regression. Pharmacokinetic parameters were calculated from the plasma concentrations using Pheonix WinNonlin.

[2] = Pharmacokinetic study in Beagle dogs; type: in vivo; conditions: dog, plasma
Description: as §1

[3] = Pharmacokinetic study in Sprague Dawley rats; type: in vivo; conditions: rat, plasma
Description: as §1

[4] = Pharmacokinetic study in cynomolgus monkeys; type: in vivo
Description: as §1

[5] = male, mouse, plasma, Oral (10 mg/kg)
[6] = male, mouse, plasma, iv, I.V. (2 mg/kg)
[7] = Oral (2 mg/kg), NA: no detectable
[8] = cynomolgus monkey, plasma, iv, I.V. (1 mg/kg)
[9] = cynomolgus monkey, plasma, Oral (2 mg/kg), NA: no detectable
[10] = iv, I.V. (1 mg/kg), read-out: Vdss

CL ([1]; I.V. (2 mg/kg)): 17.3 mL · kg − 1 · min − 1
Vdss ([1]; I.V. (2 mg/kg)): 0.785 L/kg
Cmax ([1]; Oral (10 mg/kg)): 1899 ng/mL
F % ([1]; Oral (10 mg/kg)): 66.6%
Tmax ([1]; Oral (10 mg/kg)): 0.500 h
AUC [1, 5]: 6400 ng·h/mL
AUC [1, 6]: 1910 ng·h/mL
C0 [1, 6]: 3340 ng/mL
C0 ([2]; iv, I.V. (1 mg/kg)): 469 ± 255 ng/mL
C0 ([3]; iv, I.V. (1 mg/kg)): 1980 ± 101 ng/mL
SMILES: [2H]C([2H])([2H])CC(=O)c1cnc(Nc2ccc(C(C)(C)O)c(F)n2)cc1Nc1cccc(-c2ncn(C([2H])([2H])[2H])n2)c1OC [Example 202]

CL ([1]; I.V. (2 mg/kg)): 7.35 mL · kg − 1 · min − 1
Vdss ([1]; I.V. (2 mg/kg)): 1.5 L/kg
Cmax ([1]; Oral (10 mg/kg)): 4193 ng/mL
F % ([1]; Oral (10 mg/kg)): 85.1%
Tmax ([1]; Oral (10 mg/kg)): 0.250 h
AUC [1, 5]: 19300 ng·h/mL
AUC [1, 6]: 4480 ng·h/mL
C0 [1, 6]: 2390 ng/mL
Cmax [4, 7]: 384 ± 22 ng/mL
F % [4, 7]: 27.7 ± 1.7%
Tmax [4, 7]: 2.0 ± 0 h
C0 [4, 8]: 677 ± 81 ng/mL
C0 ([2]; iv, I.V. (0.5 mg/kg)): 29.7 ± 14 ng/mL
clearance ([2]; iv, I.V. (0.5 mg/kg)): 8.17 ± 2.6 mL/min/kg
C0 ([3]; iv, I.V. (1 mg/kg)): 1030 ± 47 ng/mL
SMILES: [2H]C([2H])([2H])CC(=O)c1cnc(NC(=O)C2CC2)cc1Nc1nccc(-c2ncn(C([2H])([2H])[2H])n2)c1OC [Example 200]

Cmax [4, 7]: 13.9 ± 2 ng/mL
F % [4, 7]: 4.67 ± 1.5%
Tmax [4, 7]: 2.33 ± 1.5 h
C0 [4, 8]: 849 ± 50 ng/mL
C0 ([2]; iv, I.V. (1 mg/kg)): 458 ± 336 ng/mL
C0 ([3]; iv, I.V. (1 mg/kg)): 1190 ± 116 ng/mL
SMILES: [2H]C([2H])([2H])CC(=O)c1cnc(Nc2ccc(C(C)(C)O)c(F)n2)cc1Nc1nccc(-c2ncn(C([2H])([2H])[2H])n2)c1OC [Example 201]

C0 ([2]; iv, I.V. (1 mg/kg)): 334 ± 96 ng/mL
C0 ([3]; iv, I.V. (1 mg/kg)): 414 ± 56 ng/mL
SMILES: [2H]C([2H])([2H])CC(=O)c1cnc(Nc2cccc(C#N)n2)cc1Nc1nccc(-c2ncn(C([2H])([2H])[2H])n2)c1OC [Example 199]

Cmax [4, 7]: 246 ± 124 ng/mL
F % [4, 7]: 59.4 ± 21.1%
Tmax [4, 7]: 4 ± 0 h
C0 [4, 8]: 667 ± 82 ng/mL
C0 ([2]; iv, I.V. (1 mg/kg)): 182 ± 47.6 ng/mL
C0 ([3]; iv, I.V. (1 mg/kg)): 1200 ± 70 ng/mL
SMILES: [2H]C([2H])([2H])CC(=O)c1cnc(Nc2cccc(C#N)n2)cc1Nc1cccc(-c2ncn(C([2H])([2H])[2H])n2)c1OC [Example 198]

C0 [4, 8]: 787 ± 61 ng/mL
SMILES: [2H]C([2H])([2H])CC(=O)c1cnc(Nc2ccc(C(O)(C([2H])([2H])[2H])C([2H])([2H])[2H])c(F)n2)cc1Nc1ncccc1S(C)(=O)=O [Example 203]

AUC [1, 5]: 8870 ng·h/mL
bioavailability [1, 5]: 86.7%
half-life [1, 5]: 2.96 h
Cmax ([1]; male, mouse, plasma, Oral (10 mg/kg), read-out: Cmax): 4700 ng/mL
Tmax ([1]; male, mouse, plasma, Oral (10 mg/kg), read-out: Tmax): 0.25 h
AUC [1, 6]: 2040 ng·h/mL
C0 [1, 6]: 3220 ng/mL
clearance [1, 6]: 15.6 mL/min/kg
half-life [1, 6]: 2.19 h
Vd ([1]; male, mouse, plasma, iv, I.V. (2 mg/kg), read-out: Vdss): 1.56 L/kg
AUC [4, 9]: 3190 ± 1630 ng·h/mL
bioavailability [4, 9]: 27.8 ± 14%
half-life [4, 9]: 10.6 ± 3.8 h
Cmax ([4]; cynomolgus monkey, plasma, Oral (2 mg/kg), NA: no detectable, read-out: Cmax): 247 ± 136 ng/mL
Tmax ([4]; cynomolgus monkey, plasma, Oral (2 mg/kg), NA: no detectable, read-out: Tmax): 5.33 ± 1.2 h
AUC [4, 8]: 5740 ± 1170 ng·h/mL
C0 [4, 8]: 1420 ± 264 ng/mL
clearance [4, 8]: 2.79 ± 0.74 mL/min/kg
half-life [4, 8]: 7.54 ± 1.6 h
Vd ([4]; cynomolgus monkey, plasma, iv, I.V. (1 mg/kg), read-out: Vdss): 1.2 ± 0.042 L/kg
AUC ([2]; Oral (2 mg/kg)): 1310 ± 579 ng·h/mL
Cmax ([2]; Oral (2 mg/kg)): 222 ± 46 ng/mL
Tmax ([2]; Oral (2 mg/kg)): 1.67 ± 0.58 h
bioavailability ([2]; Oral (2 mg/kg)): 35.5 ± 15%
half-life ([2]; Oral (2 mg/kg)): 6.21 ± 2.9 h
AUC ([2]; iv, I.V. (1 mg/kg)): 1900 ± 349 ng·h/mL
C0 ([2]; iv, I.V. (1 mg/kg)): 559 ± 34 ng/mL
clearance ([2]; iv, I.V. (1 mg/kg)): 8.85 ± 1.7 mL/min/kg
half-life ([2]; iv, I.V. (1 mg/kg)): 4.43 ± 0.87 h
Vd [2, 10]: 2.27 ± 0.23 L/kg
AUC ([3]; Oral (5 mg/kg)): 3200 ± 600 ng·h/mL
Cmax ([3]; Oral (5 mg/kg)): 792 ± 260 ng/mL
Tmax ([3]; Oral (5 mg/kg)): 1 ± 0.87 h
bioavailability ([3]; Oral (5 mg/kg)): 32.6 ± 5.4%
half-life ([3]; Oral (5 mg/kg)): 2.93 ± 1.2 h
AUC ([3]; iv, I.V. (1 mg/kg)): 1970 ± 166 ng·h/mL
C0 ([3]; iv, I.V. (1 mg/kg)): 1740 ± 276 ng/mL
clearance ([3]; iv, I.V. (1 mg/kg)): 8.41 ± 0.7 mL/min/kg
half-life ([3]; iv, I.V. (1 mg/kg)): 2.42 ± 1.7 h
Vd [3, 10]: 0.933 ± 0.12 L/kg
SMILES: [2H]C([2H])([2H])NC(=O)c1nnc(NC(=O)C2CC2)cc1Nc1cccc(-c2ncn(C)n2)c1OC [control, BMS-986165, reference compound]

CL ([1]; I.V. (2 mg/kg)): 4.16 mL · kg − 1 · min − 1
Vdss ([1]; I.V. (2 mg/kg)): 0.688 L/kg
Cmax ([1]; Oral (10 mg/kg)): 4295 ng/mL
F % ([1]; Oral (10 mg/kg)): 41.7%
Tmax ([1]; Oral (10 mg/kg)): 0.500 h
AUC [1, 5]: 16700 ng·h/mL
AUC [1, 6]: 7990 ng·h/mL
C0 [1, 6]: 2950 ng/mL
Cmax [4, 7]: 663 ± 497 ng/mL
F % [4, 7]: 16.6 ± 9.95%
Tmax [4, 7]: 4.0 ± 0 h
C0 [4, 8]: 1290 ± 106 ng/mL
C0 ([2]; iv, I.V. (1 mg/kg)): 185 ± 8.4 ng/mL
C0 ([3]; iv, I.V. (1 mg/kg)): 2150 ± 123 ng/mL
SMILES: [2H]C([2H])([2H])CC(=O)c1cnc(NC(=O)C2CC2)cc1Nc1cccc(-c2ncn(C([2H])([2H])[2H])n2)c1OC [Example 195]
